Consider four substances from patent US20220008547A1, “Carrier Peptide Fragment and use Thereof” (TOAGOSEI CO., LTD, priority 2020, published 2022).

The subject of the test is HeLa cells. As to the kind of experiment: Evaluation of cell-penetrating function by flow cytometry (mean fluorescent intensity). It is filed as cell-based, human. Conditions: for MFI (mean fluorescent intensity of measurement target cell populations): 10 μM final concentration, 20-hour incubation at 37° C., 0.5% DMSO, flow cytometer FL2, 10,000 cells. How it is done:
HeLa cells (established cell lines derived from human cervical cancer cells) were used as eukaryotic cells, and cell-penetrating functions of three samples (constructs for introducing a foreign substance) obtained in Example 1 were examined
In this example, Examples 1 to 3 were set according to the kind of peptide used as shown below. In addition, as Examples 4 and 5, peptide-free groups were set. The following test was performed in a total of 5 categories. Here, the concentration described below was a final concentration during the following 20-hour incubation.
Here, in all of the examples, the concentration of DMSO was adjusted to 0.5% during the following 20-hour incubation. In addition, the number of test wells (n) in each of the above examples was set to 3.
HeLa cells were cultured using a mixed solution containing a 90% Eagle's MEM medium (containing 0.1% non-essential amino acid, 2 mM of L-glutamine, 1 mM of sodium pyruvate, and 1.5 g/L of sodium bicarbonate) and 10% serum (FBS: fetal bovine serum) as a culture solution.
The HeLa cells were subjected to a trypsin treatment with a 0.25% trypsin/EDTA solution at 37° C. for 3 minutes. After the above treatment, trypsin was inactivated using the culture solution. Centrifugation was performed and the centrifugal supernatant was removed. The cell pellet obtained by centrifugation was suspended in a fresh culture solution. A cell suspension (sample for introducing a foreign substance) having a cell concentration of about 1×10^5 cells/well was prepared from the culture solution, and 2 ml thereof was seeded in each well of a commercially available 6-well plate (commercially available from Iwaki). Then, the cells were cultured at 37° C. for 4 hours under 5% CO2 conditions, and adhesion of the seeded cells was confirmed.
Then, 1 ml of the culture supernatant was removed from the well after the culture for 4 hours, and a culture solution containing Sample 1 at a concentration of 20 μM was added. That is, the final sample concentration in the well was 10 μM.
The plate was then incubated at 37° C. for 20 hours under 5% CO2 conditions.
After such incubation for 20 hours, the cells were washed twice with PBS at 1 ml/well. Then, the cells in the wells were treated with a 0.25% trypsin/EDTA solution at 200 μL/well at 37° C. for 3 minutes. Then, a culture solution at 400 μL/well was additionally added and the cells were collected in the tube. Then, the wells were additionally washed with PBS at 600 μL/well, and the cells remaining in the wells were collected in the above tube. The tube was centrifuged at 4° C. for 5 minutes under 210×g conditions. The centrifugal supernatant was removed, and the cell pellet was suspended (washed) in 1 ml PBS, and centrifuged under the same conditions as above. This operation was repeated twice.
Then, the collected cells were analyzed using a flow cytometer. […]
Using the above flow cytometer, gating was performed based on forward scatter (FSC) and side scatter (SSC), and a gate was set for a measurement target cell population. Then, the fluorescent intensity of the cell population within such a gate was measured. The fluorescent intensity of 10,000 measurement target cells was measured for each measurement sample. […] The measurement results were analyzed using commercially available analysis software “FlowJo (registered trademark)” (commercially available from TreeStar), and a mean fluorescent intensity (MFI) of measurement target cell populations was obtained. […]
(In general: In flow cytometry, cells or beads pass a laser one at a time.)

Non-standard residues stand in square brackets, D forms with d. No end group written: not given here. FAM = fluorescent dye label; Ahx = NCCCCCC(=O)O; βAla = NCCC(=O)O

In the case of 5(6)-Carboxyfluorescein [Example 4], the “MFI (mean fluorescent intensity of measurement target cell populations)” value is 9.7.

“FAM-KKRTLRKNDRKKR-CONH2 ({FAM}-KKRTLRKNDRKKR-NH2) [Example 2]”: the “MFI (mean fluorescent intensity of measurement target cell populations)” value worked out at 24.

As to “FAM-TLKERCLQVVRSLVKKKRTLRKNDRKKR-CONH2 ({FAM}-TLKERCLQVVRSLVKKKRTLRKNDRKKR-NH2) [Example 1]”, the “MFI (mean fluorescent intensity of measurement target cell populations)” value is on record as 8.2 × 10^2. The “cell permeability (comparison of MFI among samples)” value (10 μM, 20-hour incubation) is on record as “the best”.

For “RXRRBRRXRYQFLIRXRBRXRB-FAM (R[Ahx]RR[βAla]RR[Ahx]RYQFLIR[Ahx]R[βAla]R[Ahx]R[βAla]-{FAM}) [Example 3, X aminohexanoic acid, B β-alanine]”, the “MFI (mean fluorescent intensity of measurement target cell populations)” value is 4.0 × 10^2.
